Patent US20220125791A1, “NOVEL DEVICES” (INTRA-CELLULAR THERAPIES, INC., priority 2019, published 2022)
Read-outs that look alike come from different tables or passages of the source.

Assay: Compound 1 in plasma and ocular tissue following topical administration
Type: in vivo, male hypertensive New Zealand White Rabbit
Details: for AUC(0-t): male, New Zealand White, rabbit, topical or ocular, topical administration, 5% (2-Hydroxypropyl)-β-cyclodextrin in PBS pH 7.4, LC-MS/MS
Protocol: The goal of this study was to determine the presence/absence of Compound 1 in male hypertensive New Zealand White Rabbit plasma and ocular tissue following a topical administration. For the study, Compound 1 was formulated with 5% (2-Hydroxypropyl)-β-cyclodextrin in phosphate-buffered saline pH 7.4 at 60 μg/eye. Plasma, Cornea, Conjunctiva, Aqueous Humor (AH), and Iris Ciliary Body (ICB) samples were collected for analysis of the concentrations of Compound 1 using LC-MS/MS methods.

AUC(0-t) (60 μg/eye, aqueous humor, read-out: AUC0-24hr in the aqueous humor): 866 ng·h/mL
AUC(0-t) (60 μg/eye, plasma, read-out: AUC0-24hr in the plasma): 46.3 ng·h/mL
availability in ocular tissue (ocular tissue upon topical administration, 60 μg/eye (FIG. 1)): rapid availability
presence in plasma (plasma, 1 hour after topical administration, 60 μg/eye): present
Compound: CN1C(=O)c2c(nn(Cc3ccc(-c4ccccn4)cc3)c2Nc2ccccc2)N2C1=N[C@@H]1CCC[C@@H]12 [Compound 1]
